The source of these data is US20240417397A1 (priority 2021, published 2024).

The assay has as its system Rice blast fungi (Pyricularia oryzae, MAFF101511). In words: microbe, parasite or virus in culture. Particulars: 72 h, read-out: Inhibition rate (%) of elongation length of fungal filaments. The class given is cell-based.

Consider `COc1n[nH]c(F)c1C(F)(F)F` [Example 2, 3-fluoro-5-methoxy-4-trifluoromethylpyrazole], for which the inhibition at 500 ppm came out at 95%.
The same measure for `COc1n[nH]c(N2CCC(OC)CC2)c1C(F)(F)F` [Example 9, 3-methoxy-5-(4-methoxypiperidin-1-yl)-4-trifluoromethyl-1H-pyrazole]: 88%.
